The assay concerns the target T1, Axl (Homo sapiens, UniProt P30530).
T1 construct: endogenous in cells; host or cells: HeLa cells
T1 sequence (P30530 26-894): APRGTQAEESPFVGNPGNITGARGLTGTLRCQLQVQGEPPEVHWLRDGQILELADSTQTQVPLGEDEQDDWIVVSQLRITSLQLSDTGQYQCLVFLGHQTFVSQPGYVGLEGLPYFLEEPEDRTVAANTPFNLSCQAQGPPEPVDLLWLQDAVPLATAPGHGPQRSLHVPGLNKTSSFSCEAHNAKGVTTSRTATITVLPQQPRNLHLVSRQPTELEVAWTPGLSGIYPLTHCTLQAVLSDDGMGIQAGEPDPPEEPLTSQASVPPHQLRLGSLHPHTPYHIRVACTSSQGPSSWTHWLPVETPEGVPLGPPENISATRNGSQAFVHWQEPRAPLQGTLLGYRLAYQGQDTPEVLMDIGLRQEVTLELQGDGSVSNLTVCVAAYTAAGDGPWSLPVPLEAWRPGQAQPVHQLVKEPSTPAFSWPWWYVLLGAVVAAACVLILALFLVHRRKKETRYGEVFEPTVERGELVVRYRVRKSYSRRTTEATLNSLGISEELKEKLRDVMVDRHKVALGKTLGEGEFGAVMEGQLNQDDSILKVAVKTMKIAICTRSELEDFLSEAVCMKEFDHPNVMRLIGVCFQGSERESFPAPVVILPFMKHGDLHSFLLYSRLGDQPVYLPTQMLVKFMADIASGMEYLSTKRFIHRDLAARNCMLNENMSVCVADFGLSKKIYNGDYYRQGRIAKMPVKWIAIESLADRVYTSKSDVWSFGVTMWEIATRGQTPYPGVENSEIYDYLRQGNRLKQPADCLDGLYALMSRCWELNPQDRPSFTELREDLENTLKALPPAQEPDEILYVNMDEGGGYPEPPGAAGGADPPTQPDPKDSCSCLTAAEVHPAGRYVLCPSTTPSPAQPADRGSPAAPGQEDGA
The assay is described as follows: Phospho-Akt In-Cell Western Assay (ability to inhibit Axl activity). Type of assay: cell-based. As to conditions: Hela cells, stimulated by Axl-antibody cross-linking, phospho-Akt chemiluminescence normalized to relative cell number. An outline of the steps:
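HeLa cells starved 24 h in 0.5% FCS with Axl/Fc 500 ng/mL, pre-treated 1 h at 37° C with compound, then stimulated 5 min by anti-Axl antibody cross-linking. Fixed cells probed for phospho-Akt with HRP secondary; chemiluminescence read.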

In turn, `Nc1nc(Nc2ccc(N3CCC(N4CCCC4)CC3)c(F)c2)nn1-c1cc(-c2ccc(C(F)(F)F)cc2)c2c(n1)C1CCN2CC1` [Compound 57, 1-(1,4-ethano-8-(4-trifluoromethylphenyl)-1,2,3,4-tetrahydro-1,5-naphthyridin-6-yl)-N^3-(3-fluoro-4-(4-(pyrrolidin-1-yl)piperidin-1-yl)phenyl)-1H-1,2,4-triazole-3,5-diamine] yielded an IC50 below 1 µM.

Turning to `Cc1cc(Nc2nc(N)n(-c3cc(-c4ccccc4)c4c(n3)C3CCN4CC3)n2)ccc1N1CCC(N2CCCC2)CC1` [Compound 68, 1-(1,4-ethano-8-phenyl-1,2,3,4-tetrahydro-1,5-naphthyridin-6-yl)-N^3-(3-methyl-4-(4-(pyrrolidin-1-yl)piperidin-1-yl)phenyl)-1H-1,2,4-triazole-3,5-diamine], the IC50 is below 1 µM.

With `Nc1nc(Nc2ccc(N3CCN(C4CCCCCC4)CC3)cc2)nn1-c1ncc2c(n1)C1CCC2C1` (stereo not drawn) [Compound 10, N^3-(4-(4-cycloheptylpiperazin-1-yl)phenyl)-1-(5,8-methano-5,6,7,8-tetrahydroquinazolin-2-yl)-1H-1,2,4-triazole-3,5-diamine], the IC50 is below 1 µM.

In the case of `CN(C)C1CCN(c2ccc(Nc3nc(N)n(-c4cc(-c5cccs5)c5c(n4)C4CCC5C4)n3)cc2F)CC1` (stereo not drawn) [Compound 54, 1-(5,8-methano-4-thiophen-2-yl-5,6,7,8-tetrahydroquinoline-2-yl)-N^3-(3-fluoro-4-(4-dimethylaminopiperidin-1-yl)phenyl)-1H-1,2,4-triazole-3,5-diamine], the IC50 was below 1 µM.

Compound `COc1cc2ncnc(-n3nc(Nc4ccc5c(c4)CC4CCC(C5)C4N4CCCC4)nc3N)c2cc1OC` (stereo not drawn) [Compound 16, 1-(6,7-dimethoxyquinazolin-4-yl)-N^3-(7-pyrrolidin-1-yl-6,8-ethano-6,7,8,9-tetrahydro-5H-benzo[7]annulene-3-yl)-1H-1,2,4-triazole-3,5-diamine] came in with an IC50 below 1 µM.

Regarding `Cc1csc2c(-n3nc(Nc4cnc5c(c4)C4CCC(C5)N4C)nc3N)nc(Cl)nc12` (stereo not drawn) [Compound 24, 1-(2-chloro-7-methylthieno[3,2-d]pyrimidin-4-yl)-N^3-(5,7-ethano-5,7,8-trihydro-6-methyl-1,6-naphthyridin-3-yl)-1H-1,2,4-triazole-3,5-diamine], the IC50 was below 1 µM.

Regarding `Nc1nc(Nc2ccc(N3CCC(N4CCCC4)CC3)c(F)c2)nn1-c1nnc(-c2ccccc2)c2c1C1CCC2C1` (stereo not drawn) [Compound 40, 1-(5,8-methano-1-phenyl-5,6,7,8-tetrahydrophthalazine-4-yl)-N^3-(3-fluoro-4-(4-(pyrrolidin-1-yl)piperidin-1-yl)phenyl)-1H-1,2,4-triazole-3,5-diamine], the IC50 was below 1 µM.

`Cc1cc(Nc2nc(N)n(-c3cc(-c4ccccc4)c4c(n3)C3CCC4C3)n2)cnc1N1CCN(CC2CC2)CC1` (stereo not drawn) [Compound 51, 1-(5,8-methano-4-phenyl-5,6,7,8-tetrahydroquinoline-2-yl)-N^3-(3-methyl-2-(4-cyclopropylmethylpiperazin-1-yl)pyridine-5-yl)-1H-1,2,4-triazole-3,5-diamine]: the IC50 lay within 1 to 10 µM.

Regarding `Cc1csc2c(-n3nc(Nc4ccc5c(c4)CC4CCC(C5)C4N4CCCC4)nc3N)nc(Cl)nc12` (stereo not drawn) [Compound 15, 1-(2-chloro-7-methylthieno[3,2-d]pyrimidin-4-yl)-N^3-(7-pyrrolidin-1-yl-6,8-ethano-6,7,8,9-tetrahydro-5H-benzo[7]annulene-3-yl)-1H-1,2,4-triazole-3,5-diamine], the IC50 is below 1 µM.

The compound `Nc1nc(Nc2ccc3c(c2)CCNC3)nn1-c1ncc2c(n1)C1CCC2C1` (stereo not drawn) [Compound 13, 1-(5,8-methano-5,6,7,8-tetrahydroquinazolin-2-yl)-N^3-(1,2,3,4-tetrahydroisoquinolin-6-yl)-1H-1,2,4-triazole-3,5-diamine] showed an IC50 above 20 µM.

`CN1CCN(c2ccc(Nc3nc(N)n(-c4cc(-c5ccccc5)c5c(n4)C4CCC5C4)n3)cc2)CC1` (stereo not drawn) [Compound 45, 1-(5,8-methano-4-phenyl-5,6,7,8-tetrahydroquinoline-2-yl)-N^3-(4-(4-methylpiperazin-1-yl)phenyl)-1H-1,2,4-triazole-3,5-diamine] registered a concentration for half-maximal inhibition (IC50) below 1 µM.

As for `Nc1nc(Nc2ccc(N3CCN(C4CC5CCC4C5)CC3)c(F)c2)nn1-c1cc(-c2ccccc2)c2c(n1)C1CCN2CC1` (stereo not drawn) [Compound 36, 1-(1,4-ethano-8-phenyl-1,2,3,4-tetrahydro-1,5-naphthyridin-6-yl)-N^3-(3-fluoro-4-(4-bicyclo[2.2.1]heptan-2-ylpiperazin-1-yl)phenyl)-1H-1,2,4-triazole-3,5-diamine], the IC50 is below 1 µM.

For `Nc1nc(Nc2ccc(OCCN3CCCC3)cc2)nn1-c1ncc2c(n1)C1CCC2C1` (stereo not drawn) [Compound 1, 1-(5,8-methano-5,6,7,8-tetrahydroquinazolin-2-yl)-N^3-(4-(2-(pyrrolidin-1-yl)ethoxy)phenyl)-1H-1,2,4-triazole-3,5-diamine], the IC50 is above 20 µM.

In the case of `COc1ccc(-c2cc(-n3nc(Nc4ccc(N5CCC(N6CCCC6)CC5)c(F)c4)nc3N)nc3c2N2CCC3CC2)cc1` [Compound 62, 1-(1,4-ethano-8-(4-methoxyphenyl)-1,2,3,4-tetrahydro-1,5-naphthyridin-6-yl)-N^3-(3-fluoro-4-(4-(pyrrolidin-1-yl)piperidin-1-yl)phenyl)-1H-1,2,4-triazole-3,5-diamine], the IC50 was below 1 µM.

`COC(=O)[C@@H]1CCCN1C1CCN(c2ccc(Nc3nc(N)n(-c4cc(-c5ccccc5)c5c(n4)C4CCN5CC4)n3)cc2F)CC1` [Compound 60, 1-(1,4-ethano-8-phenyl-1,2,3,4-tetrahydro-1,5-naphthyridin-6-yl)-N^3-(3-fluoro-4-(4-((2S)-2-methyloxycarbonylpyrrolidin-1-yl)piperidin-1-yl)phenyl)-1H-1,2,4-triazole-3,5-diamine] displayed an IC50 below 1 µM.

Regarding `CC1(C)[C@H]2Cc3ccc(-n4nc(Nc5ccc(N6CCN(C7CC8CCC7C8)CC6)c(F)c5)nc4N)nc3[C@@H]1C2` (stereo partly drawn) [Compound 39, 1-(7,7-dimethyl-(6R,8R)6,8-methano-5,6,7,8-tetrahydroquinoline-2-yl)-N^3-(3-fluoro-4-(4-bicyclo[2.2.1]heptan-2-ylpiperazin-1-yl)phenyl)-1H-1,2,4-triazole-3,5-diamine], the IC50 is above 20 µM.

As to `Nc1nc(Nc2ccc(N3CCC(N4CCCC4)CC3)c(F)c2)nn1-c1cc(-c2ccncc2)c2c(n1)C1CCN2CC1` [Compound 32, 1-(1,4-ethano-8-pyridin-4-yl-1,2,3,4-tetrahydro-1,5-naphthyridin-6-yl)-N^3-(3-fluoro-4-(4-(pyrrolidin-1-yl)piperidin-1-yl)phenyl)-1H-1,2,4-triazole-3,5-diamine], the IC50 was below 1 µM.

The compound `Nc1nc(Nc2ccc(N3CCN(CC4CC4)[C@H](C(=O)O)C3)c(F)c2)nn1-c1cc(-c2ccccc2)c2c(n1)C1CCN2CC1` [Compound 66, 1-(1,4-ethano-8-phenyl-1,2,3,4-tetrahydro-1,5-naphthyridin-6-yl)-N^3-(3-fluoro-4-((3S)-3-carboxy-4-cyclopropylmethylpiperazin-1-yl)phenyl)-1H-1,2,4-triazole-3,5-diamine] had an IC50 below 1 µM.

Values taken from patent US8609650B2, “Bridged bicyclic aryl and bridged bicyclic heteroaryl substituted triazoles useful as Axl inhibitors” (Rigel Pharmaceuticals, Inc., priority 2006, dated 2013).
